Reference: patent US5723496A, “Method for prevention and treatment of harmful effects of intracellular acidosis” (priority 1995, dated 1998)
Where “and” joins values, the source holds several entries; their conditions need not be identical. Equal values may be shown once. Entries after “also recorded” stand apart in the source; their conditions may differ. Where a name gives a salt, the structure may show the parent alone.

Columns and labels:
pKa determination = assay type: physicochemical; details: read-out: pKa value (guanidino/amidino moiety)
Protocol: The mixture was heated to 60° C. and maintained at this temperature until evolution of gas ceased. The solution was cooled on ice until crystals were formed. Following the filtration, the crystals were dissolved in a minimum of distilled water and were recrystallized three times from water. Purity of GES was confirmed by proton NMR spectroscopy at 500 MHz (GE Omega-500). The pKa value of the amino moiety of GES was determined to be 12.48
GES was prepared as described above. Taurine and methyl isothiopseudourea were purchased from Sigma (St. Louis, Mo.). […] The mixture was heated to 60° C. and maintained at this temperature until evolution of gas ceased. The solution was cooled on ice to crystalize GES, and filtered. The crystals were dissolved in a minimal amount of distilled water and then recrystallized three times from water. The purity of GES was confirmed by proton NMR spectroscopy at 500 MHz (GE Omega-500). The pKa value of the amidino moiety of GES was determined to be 12.48.

[1] = system: mouse brain intracellular acidosis; experiment: in vivo brain pH before and after 2 min anoxia (Example 4); set-up: species or system mice; details: for brain pH after anoxia / brain pH before anoxia: mice, 3.75 mmole/kg/day i.p., 14 days; for brain pH after anoxia: 2 min anoxia
Protocol: Using the same experimental procedure as in Example 3, in vivo pH buffering property of guanidinoethanesulfonic acid against the in vivo intracellular acidosis and pH depression caused by anoxia was evaluated.
Aqueous solution of guanidinoethanesulfonic acid (0.3M) was administered daily intraperitoneally to five mice at a dose of 3.75 mmole/kg/day for a period of 14 days. The same number of control mice (5) received intraperitoneal administration of physiological saline solution at a dose of 0.25 ml/animal/day for the same period (14 days).
After the 14 days of administration period of GES or saline, animals were placed in a chamber filled with pure 100% nitrogen for 2 minutes to produce the anoxia state. The pH of the brain was measured in vivo before and after the anoxia by the technique of ^31 P spectroscopy using Omega-7 Tesla Magnetic Resonance Spectrophotometer.

[2] = set-up: species or system gerbil; details: in vivo
Protocol: Adult male gerbils (ca. 70 g) were divided into three groups of 5 gerbils each. Control group received saline and experimental group received GES. Taurine group served as an additional control. […] The saline group received 0.25 ml of saline injections.
After two weeks, animals were sacrificed by exsanguination under pentobarbital anesthesia. Brains were removed and fixed in liquid nitrogen. The frozen brains were pulverized in a liquid nitrogen cooled mortar and pestle, and mixed with 4 volumes of 0.5N powdered frozen perchloric acid. The powder mixture was centrifuged in liquid nitrogen cooled centrifuge tubes at 16,000 rpm at -4° C. for 30 minutes. The supernatant was removed and titrated to a pH of 9.0-9.5 by the addition of potassium bicarbonate. The solution was stored in an ice bath for 15 minutes and the potassium perchlorate precipitate was removed by centrifugation at 16,000 rpm at -4° C.
Aliquots (0.5 ml) of the extracts obtained above were placed on a dual bed ion exchange column containing 6×0.5 cm Dowex AG1 anion exchange resin (chloride form) layered over 6×0.5 cm Dowex AG50 cation exchange resin (hydrogen form). Water (3 ml) then added to the column. The eluent, guanidinoethyl sulfonate, was free from other naturally occurring guanidino compounds, such as arginine. […] After 18 min., absorbance was read at 545 nm using a Gilford Spectrophotometer to determine brain GES level.

gerbil brain = experiment: intracellular pH of gerbil brain (31P NMR); assay type: in vivo; details: mean and standard deviation; p<0.05 (t-test) vs saline 7.17; sulfate
Protocol: Intracellular pH measurement of gerbil brain was performed non-invasively using ^31 P nuclear magnetic resonance (NMR) in vivo spectroscopy. AGE Omega CSI-7T (useful bore 120 mm, horizontal, 7T) was used.
Gerbils were divided into […] of 7 animals each. Control group received saline. Saline ischemia group received saline. GES group received GES. Gerbils were anesthetized with pentobarbital, 50 mg/kg. Gerbils were held in a padded holder which was placed in the probe chamber containing a one turn round surface coil (5 mm diameter) tunable to the resonance frequency of proton and ^31 P. To avoid signal contamination, the scalp and temporal muscle were retracted. The body temperature was kept at 37° C. using a non-magnetic heating pad. Field homogeneity was maximized by skimming on tissue water proton signals. ^31 P spectra were obtained using a one pulse sequence at 121.67 MHz with a spectral width of 10K and stored into 4K memory blocks (recycle time 2.7 sec). The broad resonance with short T2 on ^31 P spectra was removed by the convolution difference technique. Line broadening of 30 Hz was applied as noise filter.

[3] = system: post-ischemia hyperactivity; experiment: motor activity (distance traveled) before and after ischemia; assay type: in vivo, gerbil
Protocol: Ischemia was induced as described above. Motor activity was analyzed using a PC driven automatic behavior analyzer as follows. Animals were placed individually in automated motor activity chambers (Omnitech Digiscan, Columbus, Ohio). A horizontally aligned array of […] infrared beams on each side of the chamber (39×39×39 cm high), located 2.5 cm above the floor and 2.5 cm apart, detected animals movements. […] Animals were studied prior to and 1, 2, 3, 7 day after induction of ischemia. Motor activity was monitored for 6 hours between 11:00 pm and 5:00 am.

[4] = charge state in brain cytosol from pKa; details: sulfate
From the text: (Soc. Neurosci., 21 Annual Meeting, Abstract, 1078, Oct. 5, 1992). Entry of GES across the blood-brain barrier (BBB) is likely to be in the uncharged form. Following free diffusion into the cytosol, the ratio between uncharged and charged forms will equilibrate according to cytosolic pH and the pKa value of GES.
Following free diffusion into cytosol, the ratio between charged (RH3^+) and uncharged forms will equilibrate according to cytosolic pH and their respective pKa values.

[5] = listed as guanidinoethane sulfate

In the case of `N=C(N)NCCS(=O)(=O)O` [GES, guanidinoethane sulfate], the pKa (pKa determination) is reported as 12.5, the “brain pH after anoxia” value [1, 5] is reported as 7.05±0.05 and the “brain pH before anoxia” value [1, 5] is reported as 7.16±0.04. The “brain pH after anoxia” value ([1]; sulfate) was 7.05, the “brain pH before anoxia” value ([1]; sulfate) was 7.16 and the “prevention of decrease in brain pH (in words)” value ([1]; p<0.05, listed as guanidinoethane sulfate) was “effectively protects the brain cell from the acidosis damage”. For the same molecule, the “prevention of decrease in brain pH (in words)” value ([1]; p<0.05, sulfate) was “significantly (p<0.05) prevented the decrease in the cellular pH”, the “brain GES level relative to saline group” value [2] was “about 7 times” and the “intracellular pH of gerbil brain” value (gerbil brain) was 7.26 and 7.25±0.07 and 7.25. The “travelling distance before ischemia” value ([3]; GES-treated gerbils) was “approximately 150 m/hours”, the “travelling distance of ischemia control vs GES ischemia group” value ([3]; first day after ischemia) was “more than 2.5 times” and the “post-ischemia hyperactivity (in words)” value ([3]; in vivo, sulfate) was “did not experienced such hyperactivity periods; also recorded: significantly suppressed; also recorded: able to suppress post-ischemic hyperactivity to close to normal levels”. The “charge state in brain cytosol (in words)” value [4] was “virtually all GES in brain cytosol is in the charged form”.
